Results on five compounds are retold here after patent US5246947A, “Substituted pyridinylamino-1,2-benzisothiazoles and their use for treating depression” (Hoechst-Roussel Pharmaceuticals Incorporated, priority 1992, dated 1993).

Where a name gives a salt, the structure may show the parent alone. Read-outs that look alike come from different tables or passages of the source.

The test system of assay [1] is norepinephrine (NE) uptake. Nature of the assay: [^3 H]-Norepinephrine Uptake in Rat Whole Brain Synaptosomes. It is filed as biochemical, rat (male CR Wistar). To be noted: [^3 H]-NE 50 nM, 37° C., 5 min, Table 2.
The target in assay [2] is T1, α2-Receptor (Rattus norvegicus, UniProt P22909).
T1 construct: the cortical tissue rapidly dissected; from tissue; host or cells: cortical tissue of male Wistar rats, washed membrane suspension
T1 sequence (P22909 1-465): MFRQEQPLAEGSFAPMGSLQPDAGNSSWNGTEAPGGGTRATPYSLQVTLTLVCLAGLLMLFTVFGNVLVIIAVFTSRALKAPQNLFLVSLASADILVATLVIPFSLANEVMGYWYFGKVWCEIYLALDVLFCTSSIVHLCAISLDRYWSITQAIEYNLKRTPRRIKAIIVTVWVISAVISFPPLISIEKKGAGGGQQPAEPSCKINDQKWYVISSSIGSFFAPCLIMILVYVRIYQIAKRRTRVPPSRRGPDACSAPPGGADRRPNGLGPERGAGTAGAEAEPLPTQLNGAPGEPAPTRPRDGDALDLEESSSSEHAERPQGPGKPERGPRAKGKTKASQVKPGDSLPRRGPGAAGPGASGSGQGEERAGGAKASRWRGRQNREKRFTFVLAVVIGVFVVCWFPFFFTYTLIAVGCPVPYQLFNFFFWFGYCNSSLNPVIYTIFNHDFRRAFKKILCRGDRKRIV
The assay can be described thus: [^3 H]-Clonidine Binding: α2-Receptor. On the set-up: species or system rat (male Wistar).
Protocol: [^3 H]-Clonidine Binding: α2 -Receptor
The purpose of this assay is to assess the interaction of compounds with central α2 -receptors.
a. 57.2 g Tris HCl 16.2 Tris Base-bring to 1 liter (0.5M Tris buffer, pH 7.7) b. Make a 1:10 dilution in distilled H2 O (0.05M Tris buffer, pH 7.7)
Tris buffer containing physiological ions b. Dilute 1:10 in distilled H2 O. This yields 0.05 M Tris HCl, pH 7.7; containing NaCl (120 mM), KCl (5 mM), CaCl2 (2 mM) and MgCl2 (1 mM) 3. [4-^3 H]-Clonidine hydrochloride (20-30 Ci/mmol) is obtained from New England Nuclear.
Clonidine-HCl is obtained from Boehringer Ingelheim. A stock solution of 0.1 mM clonidine is made up to determine nonspecific binding. This yields a final concentration of 1 μM in the assay (20 μl to 2 ml).
Male Wistar rats are sacrified by decapitation and the cortical tissue rapidly dissected. The tissue is homogenized in 50 volumes of 0.05M Tris buffer, pH 7.7 (buffer 1b) with the Brinkman Polytron, then centrifuged at 40,000 g for 15 minutes. […]
Tissue homogenates are incubated for 20 minutes at 25° C. with 3 nM [^3 H]-clonidine and varying drug concentrations, then immediately filtered under reduced pressure on Whatman GF/B filters. […] Ten ml of liquiscint counting solution is added to each sample which is then counted by liquid scintillation spectroscopy. […] IC50 values are calculated using log-probit analysis.

Assay [3] has as its system TPA-induced ear edema. Nature of the assay: TPA-Induced Ear Edema (TPAEE). It is filed as in vivo, mouse (female Swiss Webster). To be noted: topical, ear plug weight after about 5 hours, Table 3. As to the method:
The dermatological activity of the compounds was ascertained according to the following method.
TPA-Induced Ear Edema (TPAEE)
The purpose of this assay was to determine the ability of a topically applied compound to prevent ear edema induced by topical application of TPA (phorbol 12-myristate acetate). Female Swiss Webster mice topically received TPA (10 μg/ear) on the right ear and vehicle on the left ear. […] After about 5 hours, the animals are sacrificed and a 4 mm diameter plug is taken from each ear and weighed. The difference between the right and left ear plug weights for each animal was determined. The antiinflammatory activity of the test compound is expressed as the mean percent change in ear plug weight of the treated animals compared to the mean percent change in the plug weight of the control animals. (Young, J. M. et al., J. Invest. Dermatol., 80 (1983), pp. 48-52.)

In assay [4] the target is T2, Brain AChE (acetylcholinesterase) (Rattus norvegicus, UniProt P37136).
T2 construct: corpora striata dissected free, weighed and homogenized in 19 volumes; from tissue; host or cells: corpora striata of male Wistar rats, whole homogenate
The assay can be described thus: biochemical. Set-up: species or system rat (male Wistar). As to conditions: rat striatum; 5 mM acetylthiocholine final; pH 7.2; Table 1; read-out: Inhibitory Concentration Brain AChE. An excerpt: Cholinesterases are found throughout the body, both in the brain and in serum. However, only brain acetylcholinesterase (AChE) distribution is correlated with central cholinergic innervation. […] We have determined in vitro inhibition of acetylcholinesterase activity in rat striatum according to the method described below.
In Vitro Inhibition of Acetylcholinesterase Activity in Rat Striatum
The method described below was used in this invention for assaying anticholinesterase activity. This is a modification of the method of Ellman et al., Biochem. Pharmacol. 7, 88 (1961).
1. 0.05M Phosphate buffer, pH 7.2
(c) add (a) to (b) until pH reaches 7.2
4. A 2 mM stock solution of the test drug is made up in a suitable solvent and brought to volume with 0.5 mM DTNB (reagent 3). Drugs are serially diluted (1:10) such that the final concentration (in cuvette) is 10^-4 M and screened for activity. If active, IC50 values are determined from the inhibitory activity of subsequent concentrations.
Enzyme activity is measured with the Beckman DU-50 spectrophotometer. This method can be used for IC50 determinations and for measuring kinetic constants.
Reagents are added to the blank and sample cuvettes as follows:
This program also calculates the rate of absorbance change for each cuvette.
Substrate concentration is 10 mM diluted 1:2 in assay yielding final concentration of 5 mM.

In assay [5] the test system is serotonin (5-hydroxytryptamine, 5HT) uptake. Nature of the assay: [^3 H]-Serotonin Uptake in Rat Whole Brain and Hypothalamic Synaptosomes. It is filed as biochemical, rat (male CR Wistar). As to conditions: [^3 H]-5HT 50 nM, 37° C., 5 min, Table 2. As to the method:
[^3 H]-Serotonin Uptake in Rat Whole Brain and Hypothalamic Synaptosomes
This activity is determined in an assay which measures [^3 H]-serotoninuptake in rat whole brain and hypothalamic synaptosomes.
Male CR Wistar rats (100-125 g)
Prepare a 1 liter batch containing the following salts.
3. A 0.1 mM stock solution of serotonin creatinine SO4 is made up in 0.01N HCl. This is used to dilute the specific activity of the radiolabeled 5HT.
4. 5-[1,2-^3 H(N)]-Hydroxytryptamine creatinine sulfate (serotonin), specific activity 20-30 Ci/mmol, is used.
The final desired concentration of [^3 H]-5HT in the assay is 50 nM. The dilution factor is 0.8. The KHBB is made up to contain 62.5 nM of [^3 H]-5HT.
5. For most assays, a 1 mM stock solution of the test compound is made up in a suitable solvent and serially diluted such that the final concentration in the assay ranges from 2×10^-8 to 2×10^-5 M. Seven concentrations are used for each assay.
Male Wistar rats are decapitated and the brain rapidly removed.
Tubes are incubated at 37° C. under a 95% O2 /5% CO2 atmosphere for 5 minutes. For each assay, 3 tubes are incubated with 20 μl of vehicle at 0° C. in an ice bath. After incubation all tubes are immediately centrifuged at 4000 g for 10 minutes. […] The tubes are vigorously vortexted, decanted into scintillation vials, and counted in 10 ml of Liquiscint scintillation counting cocktail. […]

T2 sequence (P37136 32-614): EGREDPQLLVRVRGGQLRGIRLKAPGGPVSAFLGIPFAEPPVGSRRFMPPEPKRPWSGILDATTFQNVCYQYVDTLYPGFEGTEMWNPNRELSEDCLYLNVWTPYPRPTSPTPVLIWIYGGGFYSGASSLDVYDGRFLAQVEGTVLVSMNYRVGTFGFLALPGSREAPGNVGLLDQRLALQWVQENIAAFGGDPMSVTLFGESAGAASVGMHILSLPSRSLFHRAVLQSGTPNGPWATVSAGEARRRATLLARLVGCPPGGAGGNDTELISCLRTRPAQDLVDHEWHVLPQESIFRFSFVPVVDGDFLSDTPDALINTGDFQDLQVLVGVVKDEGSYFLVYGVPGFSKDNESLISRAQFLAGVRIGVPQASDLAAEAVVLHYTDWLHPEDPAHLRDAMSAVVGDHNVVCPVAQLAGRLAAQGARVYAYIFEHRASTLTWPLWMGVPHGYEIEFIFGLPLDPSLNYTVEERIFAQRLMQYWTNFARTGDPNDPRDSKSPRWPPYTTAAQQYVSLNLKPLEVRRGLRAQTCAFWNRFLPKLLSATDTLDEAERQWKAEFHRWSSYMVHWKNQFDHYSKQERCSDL

For `CN(C)CCC=C1c2ccccc2CCc2ccccc21` [Amitriptyline], in assay [1], the IC50 is 7700 nM.

`Cn1ccc2cc(Nc3ccncc3)ccc21` [1-Methyl-5-(4-pyridinylamino)-1H-indole]: the IC50 in assay [2] was 12 nM. For the same compound, the “Edema Reduction” value in assay [3] (10 μg/ear) is given as -67%. On to `COc1ccc2c(c1)c(CC(=O)O)c(C)n2C(=O)c1ccc(Cl)cc1` [Indomethacin, reference compound], for which the “Edema Reduction” value in assay [3] (at 1 mg/ear) is -86%.

With `CCCN(c1ccncc1)c1ccc2c(ccn2C)c1` [1-Methyl-5-(propyl-4-pyridinylamino)-1H-indole maleate], the IC50 in assay [4] was found to be 31.9 µM; in assay [5], 760 nM; in assay [1] it was 34 nM; in assay [2] (rat cortical tissue, 3 nM [^3 H]-clonidine, 25° C., 20 min, Table 2, read-out: [^3 H]-Clonidine Binding IC50), 330 nM. Turning to `CNCCC=C1c2ccccc2CCc2ccccc21` [Notriptyline], in assay [1], the IC50 was determined as 4000 nM.
